Assay results: patent publication US20040265368A1, “Combination compositions of camptothecins and fluoropyrimidines” (priority 2003, published 2004)

Columns and labels:
[1] = system: human Capan-1 pancreatic tumor cells; test: Capan-1 pancreatic xenograft antitumor activity; type: in vivo, SCID-Rag2M mice; details: i.v., Q7D × 3, tumors to reach 500 mg
Description: (§1) Briefly, in order to perform tumor studies on mice, animals are inoculated with tumor cells which are then allowed to grow to sufficient size. Using a 28 g needle, mice are inoculated subcutaneously with 1-2×10^6 tumor cells on day 0 (one inoculum/mouse) in a volume of 50 μL.
(§2) When tumors reach a defined size of approximately 100 mm^3 to 200 mm^3, either one-day prior to treatment or on the day of treatment, all tumors are measured. After selecting the appropriate tumor sizes, excluding tumors too small or large, the tumors are randomly distributed (n=6) and the mean tumor volume of the groups are determined. Mice are organized into appropriate treatment groups consisting of control and treatment groups such as for example, saline control, liposome control, positive control and various dilutions of test articles.
(§3) Mice are injected intravenously with the required volume of sample to administer the prescribed dose (10 μL/g as indicated) to the animals based on individual mouse weights.
(§4) Tumor growth measurements are monitored using vernier calipers beginning on the day of treatment. Tumor length measurements (mm) are made from the longest axis and width measurements (mm) will be perpendicular to this axis. From the length and width measurements tumor volumes (cm^3) are calculated according to the equation (L×W^2/2. Animal weights and in-life observations are collected at the time of tumor measurement.
(§5) In particular, signs of ill health are based on body weight loss, change in appetite, rough coat, lack of grooming, behavioral changes such as altered gait, lethargy and gross manifestations of stress. Should signs of severe toxicity or tumor-related illness be seen, the animals are euthanized (CO2 asphyxiation) and a necropsy is performed to assess other signs of toxicity. Moribund animals are terminated for humane reasons and the decision to terminate is at the discretion of the Study Director/Manager and the Animal Care Technician. Any and all of these findings will be recorded as raw data and the time of death will be logged as the following day.
(§6) Xenograft tumors were allowed to grow until they measured to be approximately 150 mg (150 mm^3) in size, and the murine tumors were grown to approximately 100 mg (100 mm^3), at which time the indicated formulations were injected. Tumor growth was determined by direct caliper measurements. […] Antitumor activity was quantitated by calculating the percent tumor growth delay and log cell kill. Percent tumor growth delay is defined as the time in days taken for treated tumors to reach the specified evaluation size as a percent of control (T−C/C×100) where T is the treatment tumors and C is the control tumors in days. […] A log cell kill of +6 indicates a 99.9999% reduction in the cell population.

[2] = system: human HT-29 colon adenocarcinoma; test: HT-29 colorectal xenograft antitumor activity; details: i.v., Q7D × 3, tumors to reach 400 mg
Description: as §1, §2, §3, §4, §5, §6

SMILES	Log cell kill ([1]; dose 250 mg/kg)	Percent tumor growth delay [(T − C ÷ C) × 100] ([1]; dose 250 mg/kg) [%]	Tumor growth delay ([1]; dose 250 mg/kg) [days]	Log cell kill ([2]; dose 250 mg/kg)	Percent tumor growth delay [(T − C ÷ C) × 100] ([2]; dose 250 mg/kg) [%]	Tumor growth delay ([2]; dose 250 mg/kg) [days]	Percent tumor growth delay [(T − C ÷ C) × 100] ([2]; dose 250 mg/kg, listed as free FUDR) [%]	Log cell kill ([1]; dose 100 mg/kg)	Percent tumor growth delay [(T − C ÷ C) × 100] ([1]; dose 100 mg/kg) [%]	Tumor growth delay ([1]; dose 100 mg/kg) [days]	Log cell kill ([2]; dose 100 mg/kg)	Percent tumor growth delay [(T − C ÷ C) × 100] ([2]; dose 100 mg/kg) [%]	Tumor growth delay ([2]; dose 100 mg/kg) [days]	Percent tumor growth delay [(T − C ÷ C) × 100] ([2]; dose 100 mg/kg, listed as free CPT-11, 100 mg/kg) [%]
O=c1[nH]c(=O)n([C@H]2C[C@H](O)[C@@H](CO)O2)cc1F [Free Flox, fluorodeoxyuridine]	0.43	23	10	0.09	8	2	8							
CCc1c2c(nc3ccc(OC(=O)N4CCC(N5CCCCC5)CC4)cc13)-c1cc3c(c(=O)n1C2)COC(=O)[C@]3(O)CC [Free Irino, irinotecan]								0.65	35	15	0.09	8	2	8
